Laboratory results reported in patent US9428487B2, “Heteroaromatic amides and thioamides as pesticides” (Bayer Intellectual Property GmbH, priority 2008, dated 2016).

Tests used:
[1] = Determination of log P values by HPLC on reversed-phase column (formic acid method); format: physicochemical; conditions: reversed-phase C 18, acidic range (pH 3.4), formic acid eluents, 55° C.; for chromatographic logP: reversed-phase HPLC column (C 18), pH 3.4, HPLC, read-out: logP (HCOOH); for logP (HCOOH): HPLC
Description: 1) Description of Method for Determining the Log P Values (Formic Acid Method)
The log P values reported in the table were determined according to EEC-Directive 79/831 Annex V.A8 by HPLC (High Performance Liquid Chromatography) on a reversed-phase column (C 18). […]
Eluent A: acetonitrile+1 ml of formic acid/liter. Eluent B: water+0.9 ml of formic acid/liter.
Gradient: from 10% eluent A/90% eluent B to 95% eluent A/5% eluent B in 4.25 min
The calibration was effected with unbranched alkan-2-ones (with 3 to 16 carbon atoms), whose log P values are known (determination of the log P values on the basis of the retention times by linear interpolation between two successive alkanones). The lambda-max values were determined with reference to the UV spectra from 200 nm to 400 nm in the maxima of the chromatographic signals.

[2] = tested on: green peach aphid (Myzus persicae); experiment: Myzus test; format: in vivo; conditions: application rate 500 g/ha, spray on Chinese cabbage leaf slices, read-out: efficacy (aphids killed)
Description: • Solvent: 78.0 parts by weight of acetone • 1.5 parts by weight of dimethylformamide • Emulsifier: 0.5 part by weight of alkylaryl polyglycol ether
To produce an appropriate active ingredient formulation, 1 part by weight of active ingredient is mixed with the amounts of solvent and emulsifier specified and the concentrate is diluted to the desired concentration with emulsifier-containing water.
Chinese cabbage leaf slices (Brassica pekinensis) infested by all stages of the green peach aphid (Myzus persicae) are sprayed with an active ingredient formulation of the desired concentration.
After the desired time, the efficacy in % is determined 100% means that all aphids have been killed; 0% means that no aphids have been killed.

Row | chromatographic logP [1] | logP (HCOOH) [1] | SMILES | pest or weed control at 500 g/ha [2]
1 | 1.97 | – | Cc1nc(Cl)sc1C(=O)NCC(F)(F)F | –
2 | 0.42 | – | O=C(O)c1cnc(-c2cccnc2)s1 [2-pyridin-3-ylthiazole-5-carboxylic acid] | –
3 | 2.15 | – | Cc1nc(-c2cncc(F)c2)sc1C(=O)NCC(F)(F)F [Compound 9] | ≥ 70%
4 | 1.39 | – | Cc1nc(-c2cncc(F)c2)sc1C(=O)NCc1ncccn1 [Compound 10] | ≥ 70%
5 | 1.24 | – | Cn1nc(-c2cncc(F)c2)cc1C(=O)NCc1ncccn1 [Compound 11] | ≥ 70%
6 | 1.89 | – | Cn1nc(-c2cncc(F)c2)cc1C(=O)NCC(C)(F)F [Compound 12] | ≥ 70%
7 | 1.75 | – | C=CN(Cc1ncccn1)C(=O)c1cc(-c2cncc(F)c2)nn1C [Compound 13] | ≥ 70%
8 | 2.5 | – | Cc1nc(-c2cncc(Cl)c2)sc1C(=O)NCC(F)(F)F [Compound 14] | ≥ 70%
9 | 1.69 | – | Cc1nc(-c2cncc(Cl)c2)sc1C(=O)NCc1ncccn1 [Compound 15] | ≥ 70%
10 | 2.61 | – | Cc1nc(-c2cncc(Br)c2)sc1C(=O)NCC(F)(F)F [Compound 16] | ≥ 70%
11 | 1.8 | – | Cc1nc(-c2cncc(Cl)c2)sc1C(=O)N(C)C [Compound 17] | –
12 | 1.87 | – | Cc1nc(-c2cncc(I)c2)sc1C(=O)NCc1ncccn1 [Compound 18] | –
13 | 1.49 | – | Cc1nc(-c2cncc(F)c2)sc1C(=O)N(C)C [Compound 19] | –
14 | 2.75 | – | Cc1nc(-c2cncc(I)c2)sc1C(=O)NCC(F)(F)F [Compound 20] | –
15 | 1.72 | – | Cc1nc(-c2cncnc2)sc1C(=O)N(C)CC(F)(F)F [Compound 21] | ≥ 70%
16 | 1.05 | – | Cc1nc(-c2cncnc2)sc1C(=O)NCc1ncccn1 [Compound 22] | ≥ 70%
17 | 1 | – | Cc1nc(-c2cncnc2)sc1C(=O)N(C)C [Compound 23] | –
18 | 0.91 | – | Cn1nc(-c2cccnc2)cc1C(=O)NCC(C)(F)F [Compound 24] | ≥ 70%
19 | 0.65 | – | Cn1nc(-c2cccnc2)cc1C(=O)NCC(F)F [Compound 25] | ≥ 70%
20 | 0.54 | – | Cc1nc(CNC(=O)c2cc(-c3cccnc3)nn2C)no1 [Compound 26] | ≥ 70%
21 | 0.99 | – | CN(CC(C)(F)F)C(=O)c1cc(-c2cccnc2)nn1C [Compound 27] | ≥ 70%
22 | 0.25 | – | Cn1nc(-c2cccnc2)cc1C(=O)NCc1ncccn1 [Compound 28] | ≥ 70%
23 | 0.56 | – | Cn1nc(-c2cccnc2)cc1C(=O)NCc1ccon1 [Compound 29] | ≥ 70%

Row | chromatographic logP [1] | logP (HCOOH) [1] | SMILES | pest or weed control at 500 g/ha [2]
24 | 1.09 | – | CN(CC(F)(F)F)C(=O)c1cc(-c2cccnc2)nn1C [Compound 30] | ≥ 70%
25 | 1.04 | – | Cn1nc(-c2cccnc2)cc1C(=O)NCC(F)(F)F [Compound 31] | ≥ 70%
26 | 1.53 | – | O=C(NCC(F)(F)F)c1nnc(-c2cccnc2)s1 [Compound 32] | ≥ 70%
27 | 0.72 | – | O=C(NCC(F)(F)F)c1cc(-c2cccnc2)n[nH]1 [Compound 33] | ≥ 70%
28 | 1.84 | – | Cc1nc(-c2cccnc2)sc1C(=O)NC1(C(F)(F)F)CC1 [Compound 34] | ≥ 70%
29 | 1.65 | – | Cc1nc(-c2cccnc2)sc1C(=O)N(C)CC(C)(F)F [Compound 35] | ≥ 70%
30 | 1.59 | – | Cc1nc(-c2cccnc2)sc1C(=O)NCC(C)(F)F [Compound 36] | ≥ 70%
31 | 1.24 | – | Cc1nc(-c2cccnc2)sc1C(=O)NC(C)c1ncccn1 (stereo not drawn) [Compound 37] | ≥ 70%
32 | 1.21 | – | Cc1nc(CNC(=O)c2sc(-c3cccnc3)nc2C)no1 [Compound 38] | ≥ 70%
33 | 1.63 | – | Cc1nc(-c2cccnc2)sc1C(=O)NCC(F)(F)F [Compound 39] | ≥ 70%
34 | 1.05 | – | Cc1nc(-c2cccnc2)sc1C(=O)NCc1ncccn1 [Compound 40] | ≥ 70%
35 | 1.48 | – | Cc1nc(-c2cccnc2)sc1C(=O)N(C)CC(F)F [Compound 41] | ≥ 70%
36 | 1.81 | – | Cc1nc(-c2cccnc2)sc1C(=O)N(C)CC(F)(F)F [Compound 42] | ≥ 70%
37 | 1.69 | – | Cc1nc(-c2cccnc2)sc1C(=O)N(C)CC(F)(F)C(F)F [Compound 43] | ≥ 70%
38 | 1.54 | – | CSCCNC(=O)c1sc(-c2cccnc2)nc1C [Compound 44] | ≥ 70%
39 | 2.21 | – | CSCC(C)(C)N(C)C(=O)c1sc(-c2cccnc2)nc1C [Compound 45] | ≥ 70%
40 | 0.91 | – | CN(C)C(=O)c1cnc(-c2cccnc2)s1 [Compound 46] | ≥ 70%
41 | 1.41 | – | Cc1nc(-c2cccnc2)sc1C(=O)N(C)C(C)(C)C#N [Compound 47] | ≥ 70%
42 | 1.27 | – | Cc1nc(-c2cccnc2)sc1C(=O)NC(C)C1=NOCCO1 (stereo not drawn) [Compound 49] | ≥ 70%
43 | 0.8 | – | Cc1nc(-c2cccnc2)sc1C(=O)NCC1COCCO1 (stereo not drawn) [Compound 50] | ≥ 70%
44 | 1.3 | – | COC(=O)C1(NC(=O)c2sc(-c3cccnc3)nc2C)CC1 [Compound 51] | ≥ 70%
45 | 1.48 | – | Cc1nc(-c2cccnc2)sc1C(=O)NC(C)(C)C#N [Compound 52] | ≥ 70%
46 | 1.11 | – | Cc1nc(-c2cccnc2)sc1C(=O)NCCF [Compound 53] | ≥ 70%

Row | chromatographic logP [1] | logP (HCOOH) [1] | SMILES | pest or weed control at 500 g/ha [2]
47 | 1.16 | – | Cc1nc(-c2cccnc2)sc1C(=O)N[C@H]1C[C@@H]1F [Compound 54] | ≥ 70%
48 | 1.03 | – | CCNC(=O)c1cnc(-c2cccnc2)s1 [Compound 55] | ≥ 70%
49 | 1.68 | – | CSC[C@H](C)NC(=O)c1sc(-c2cccnc2)nc1C [Compound 56] | ≥ 70%
50 | 1.34 | – | Cc1nc(-c2cccnc2)sc1C(=O)NCC(F)F [Compound 57] | ≥ 70%
51 | 2.77 | – | Cc1nc(-c2cccnc2)sc1C(=O)N(CC(F)(F)F)C(=O)C1(F)CC1 [Compound 58] | ≥ 70%
52 | 0.62 | – | CNC(=O)c1cnc(-c2cccnc2)s1 [Compound 59] | ≥ 70%
53 | 1.14 | – | Cc1nc(-c2cccnc2)sc1C(=O)NCc1ccon1 [Compound 60] | ≥ 70%
54 | 1.23 | – | CCN(C)C(=O)c1cnc(-c2cccnc2)s1 [Compound 61] | ≥ 70%
55 | 1.34 | – | Cc1nc(-c2cccnc2)sc1C(=O)NCC1OCC(C)O1 (stereo not drawn) [Compound 62] | ≥ 70%
56 | 1.85 | – | Cc1nc(-c2cccnc2)sc1C(=O)NC(C#N)C(C)C (stereo not drawn) [Compound 63] | ≥ 70%
57 | – | 1.57 | Cc1nc(-c2cccnc2)sc1C(=O)NC(C#N)C(C)C (stereo not drawn) [Compound 64] | –
58 | 1.45 | – | COC(OC)C(C)NC(=O)c1sc(-c2cccnc2)nc1C (stereo not drawn) [Compound 65] | ≥ 70%
59 | 1.2 | – | Cc1nc(-c2cccnc2)sc1C(=O)NC1(C#N)CC1 [Compound 66] | ≥ 70%
60 | 1.46 | – | CCN(CC)C(=O)c1cnc(-c2cccnc2)s1 [Compound 67] | ≥ 70%
61 | – | 1.65 | CSC[C@H](C)NC(=O)c1sc(-c2cccnc2)nc1C [Compound 68] | –
62 | 2.06 | – | COCN(CC(F)(F)F)C(=O)c1sc(-c2cccnc2)nc1C [Compound 69] | ≥ 70%
63 | – | 1.13 | Cc1nc(-c2cccnc2)sc1C(=O)NCC(C)F (stereo not drawn) [Compound 76] | –
64 | 2.72 | – | Cc1nc(-c2cncc(Cl)c2)sc1C(=O)N(C)CC(F)(F)F [Preparation Example 2] | –
65 | 0.49 | – | CON(C)C(=O)c1cc(-c2cccnc2)nn1C [Preparation Example 6] | –
66 | 1.93 | – | CCOC(=O)c1cnc(-c2cccnc2)s1 [ethyl 2-pyridin-3-ylthiazole-5-carboxylate] | –
67 | 1.41 | – | CCOC(=O)c1nnc(-c2cccnc2)s1 [ethyl 5-pyridin-3-yl[1,3,4]thiadiazole-2-carboxylate] | –
